# Source: PMC7251097, “Aspartate/asparagine-β-hydroxylase: a high-throughput mass spectrometric assay for discovery of small molecule inhibitors” (Scientific Reports, 2020)
# Where a name gives a salt, the structure may show the parent alone. Read-outs that look alike come from different tables or passages of the source.
# Target: T1, His6-AspH315–758 (human aspartate/asparagine-β-hydroxylase, AspH) (Homo sapiens, UniProt Q12797)
# T1 construct: N-Terminally His6-tagged human AspH315–758 (His6-AspH315–758) was produced in E. coli BL21 (DE3) cells; made in house; host or cells: E. coli BL21 (DE3), pET-28a(+) vector
# T1 sequence (Q12797 315-758): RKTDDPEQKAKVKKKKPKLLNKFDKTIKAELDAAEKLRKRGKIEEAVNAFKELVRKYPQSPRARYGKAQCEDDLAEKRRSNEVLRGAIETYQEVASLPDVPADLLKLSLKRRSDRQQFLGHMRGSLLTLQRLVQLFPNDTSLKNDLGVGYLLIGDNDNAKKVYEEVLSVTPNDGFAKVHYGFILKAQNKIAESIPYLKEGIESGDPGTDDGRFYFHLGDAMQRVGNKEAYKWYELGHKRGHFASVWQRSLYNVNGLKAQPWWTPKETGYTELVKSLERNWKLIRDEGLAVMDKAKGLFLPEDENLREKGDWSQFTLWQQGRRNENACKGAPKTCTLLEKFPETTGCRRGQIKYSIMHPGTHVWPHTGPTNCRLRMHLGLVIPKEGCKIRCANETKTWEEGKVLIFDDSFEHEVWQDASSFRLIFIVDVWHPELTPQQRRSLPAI
# Assay: SPE-MS AspH inhibition assay (LOPAC screen at fixed 20 μM and IC50 dose-response), hydroxylation of cyclic peptide hFX-CP101–119
# Type: biochemical
# [1] = LOPAC Plate 4, compound at 20 uM
# [2] = LOPAC Plate 4, compound at 20 uM, substrate conversion
# [3] = LOPAC compound at fixed 20 uM, plate 1, normalised to DMSO and 2,4-PDCA controls
# [4] = LOPAC compound at fixed 20 uM, substrate conversion, plate 1
# [5] = LOPAC compound at 20uM, plate 3, conversion of substrate peptide
# [6] = plate 5 (Pfitzer), test compounds at fixed 20 μM
# [7] = plate 5 (Pfitzer), test compounds at fixed 20 μM, mean conversion DMSO 32.88
# [8] = LOPAC compound at 20uM, plate 2, conversion of substrate peptide
# [9] = LOPAC compound at 20uM, plate 2, normalised to DMSO and 2,4-PDCA controls
# [10] = AspH activity, fixed compound concentration 20 μM, initial LOPAC screen, 0.5%v/v DMSO, read-out: Inhibition at 20 µM [%]
# [11] = LOPAC compound at 20uM, plate 2, normalised to DMSO and 2,4-PDCA controls, read-out: Plate 2 (% inhibition)
molecule,measurement,setting,value
COc1cc2nc(N3CCCN(C)CC3)nc(NC3CCN(Cc4ccccc4)CC3)c2cc1OC [BIX 01294 trihydrochloride hydrate],% inhibition,[1],-9.31%
same,% conversion,[2],39.65%
Rhodblock 6,Plate 1 (% inhibition),[3],-3.70%
same,Plate 1 (% conversion),[4],37.11%
CS(=O)(=O)c1ccc(-n2nc(C(F)(F)F)cc2-c2ccc(F)cc2)cc1 [SC-58125],Plate 3 (% conversion),[5],37.41%
same,Plate 5 (% inhibition),[6],0.65%
same,Plate 5 (% conversion),[7],36.09%
Cl.N[C@@H](CCC(=O)O)C(=O)O [L-Glutamic acid hydrochloride],Plate 2 (% conversion),[8],29.01%
same,Plate 2 (% inhibition),[9],20.74%
"O=C(/C=C/c1ccc(O)cc1)CC(=O)/C=C/c1ccc(O)cc1 [Bisdemethoxycurcumin, reference compound]",inhibition at 20 µM,[10],99.7%
COc1cccc(OC)c1-c1cc(C(=O)NC2(C(=O)O)C3CC4CC(C3)CC2C4)nn1-c1ccc(C(=O)N(C)CCCN(C)C)cc1C(C)C (stereo not shown) [SR 142948A],Plate 2 (% conversion),[8],44.18%
same,Plate 2 (% inhibition),[9],-24.57%
NC(=O)N1c2ccccc2C=Cc2ccccc21 [Carbamazepine],Plate 1 (% inhibition),[3],0.72%
same,Plate 1 (% conversion),[4],35.63%
O=C1CC2(CCCC2)CC(=O)N1CCCCN1CCN(c2ncccn2)CC1 [Buspirone hydrochloride],Plate 1 (% conversion),,40.40%
same,Plate 1 (% inhibition),[3],-13.49%
COc1ccccc1N1CCNCC1.Cl,% conversion,,37.50%
same,% inhibition,20 µM,-3.01%
Nc1ncnc2c1ncn2[C@@H]1O[C@H](COP(=O)(O)CP(=O)(O)OP(=O)([O-])[O-])[C@@H](O)[C@H]1O.[Li+].[Li+],Plate 3 (% conversion),[5],17.86%
COc1ccc(OC)c(C(O)C(C)N)c1 (stereo not shown) [Methoxamine hydrochloride],Plate 3 (% conversion),,32.85%
CN/C(=N/CCSCc1nc[nH]c1C)NC#N [Cimetidine],Plate 1 (% inhibition),[3],-0.45%
same,Plate 1 (% conversion),[4],36.02%
CC1(N2CCC(n3c([C@@H]4CCCNC4)nc4ccccc43)CC2)CCCCCCC1 [MCOPPB],Plate 5 (% conversion),,39.16%
same,Plate 5 (% inhibition),,-8.35%
"CN(C)c1cc(NC(=O)CNC(C)(C)C)c(O)c2c1C[C@H]1C[C@H]3[C@H](N(C)C)C(O)=C(C(N)=O)C(=O)[C@@]3(O)C(O)=C1C2=O [Tigecycline, tigecycline, reference compound]",IC50,"50 nM His6-AspH315–758, 1.0 μM hFX-CP101–119, 3 μM 2OG, 2 μM Fe(II), 50 mM HEPES pH 7.5, 20 °C, mean ± SD, n = 2 (2,4-PDCA n = 10), read-out: IC50",7.6 ± 1.95 µM
same,inhibition at 20 µM,[10],95.3%
same,Plate 5 (% inhibition),[6],90.85%
same,Plate 5 (% conversion),[7],5.39%
O=C1Nc2ccccc2/C1=C1/Nc2ccccc2/C1=N\O [Indirubin-3-oxime],Plate 1 (% inhibition),[3],11.42%
same,Plate 1 (% conversion),[4],32.04%
CC(C(O)c1ccc(O)cc1)N1CCC(Cc2ccccc2)CC1.CC(C(O)c1ccc(O)cc1)N1CCC(Cc2ccccc2)CC1.O=C(O)C(O)C(O)C(=O)O (stereo not shown) [Ifenprodil tartrate],Plate 3 (% conversion),[5],17.74%
NCC(O)(CS(=O)(=O)O)c1ccc(Cl)cc1 (stereo not shown) [2-Hydroxysaclofen],Plate 1 (% inhibition),[3],-6.82%
same,Plate 1 (% conversion),[4],38.16%
CC(N)c1cccc(Cl)c1Cl.Cl (racemic),Plate 2 (% conversion),,38.94%
same,Plate 2 (% inhibition),20 µM,-8.91%
CC(C)Cc1ccc([C@H](C)C(=O)O)cc1 [S(+)-Ibuprofen],Plate 3 (% conversion),[5],38.99%
NC(=O)c1cnccn1 [Pyrazinecarboxamide],% conversion,[2],32.31%
(±)-Atenolol,Plate 1 (% inhibition),[3],7.50%
N=C(N)c1ccc(N)cc1 [4-Aminobenzamidine dihydrochloride],Plate 1 (% inhibition),[3],-9.05%
same,Plate 1 (% conversion),[4],38.91%
Cc1nc2c([nH]1)c(=O)n(C)c(=O)n2Cc1ccco1 [Furafylline],Plate 2 (% conversion),[8],36.33%
same,inhibition at 20 µM,[11],-1.12%
Clc1ccc(N2C[C@H]3CC[C@@H](C2)N3)nn1 [DBO-83],Plate 2 (% conversion),[8],32.84%
same,Plate 2 (% inhibition),[9],9.30%
CCCCCCCCCCCCCCCCCCN(CCCCCCCCCCCCCCCCCC)CCCN(CCO)CCO [Avridine],% conversion,[2],28.90%
same,Plate 5 (% inhibition),[6],10.21%
same,Plate 5 (% conversion),[7],32.84%
CCc1cncnc1N1CCN(Cc2nc3ccc(C(F)(F)F)cc3[nH]2)CC1 [PF-4708671],% conversion,[2],41.30%
same,Plate 5 (% inhibition),[6],2.08%
same,Plate 5 (% conversion),[7],35.61%
CCCN1CCC[C@H](c2cccc(O)c2)C1.Cl [R(+)-3PPP hydrochloride],% inhibition,[1],3.51%
same,% conversion,[2],35.27%
CCc1ccccc1OC[C@@H](O)CN[C@H]1CCCc2ccccc21.O=C(O)C(=O)O [SR 59230A oxalate],% conversion,,13.86%
same,% inhibition,20 µM,66.24%
"COc1ccc2c(c1OC)C(=O)OC2C1c2cc3c(cc2CCN1C)OCO3 (single isomer, unassigned; (+)) [(+)-Hydrastine]",Plate 2 (% conversion),,38.28%
same,inhibition at 20 µM,read-out: Plate 2 (% inhibition),-6.94%
CS(=O)(=O)c1cccc(CNc2nc(Nc3ccc4c(c3)CCC(=O)N4)ncc2C(F)(F)F)c1 [PF-573228],Plate 5 (% inhibition),[6],7.79%
same,Plate 5 (% conversion),[7],33.66%
Cn1c(=O)c2c(nc(C=Cc3cccc(Cl)c3)n2C)n(C)c1=O [8-(3-Chlorostyryl)caffeine],Plate 2 (% conversion),,38.57%
same,Plate 2 (% inhibition),20 µM,-7.82%
CN1C[C@H](CNC(=O)OCc2ccccc2)C[C@@H]2c3cccc4c3c(cn4C)C[C@H]21 [Metergoline],Plate 3 (% conversion),[5],47.43%
C=C(C)[C@H]1CC=C(C(=O)O)CC1 [(-)-Perillic acid],% conversion,[2],29.82%
Cc1cc2c(cc1Cl)N(C(=O)Nc1cccc3ncccc13)CC2 [SB-215505],Plate 3 (% conversion),[5],42.68%
"Nc1ccc2c3c(cccc13)C(=O)NC2=O [4-Amino-1,8-naphthalimide]",Plate 1 (% inhibition),[3],-1.00%
same,Plate 1 (% conversion),[4],36.21%
CCN(CC)C(=O)c1ccc(O)c(OC)c1 [Vanillic acid diethylamide],Plate 2 (% conversion),[8],35.22%
same,Plate 2 (% inhibition),[9],2.19%
C[C@@H](Oc1cc(-c2cnn(C3CCNCC3)c2)cnc1N)c1c(Cl)ccc(F)c1Cl [Crizotinib],Plate 5 (% inhibition),[6],-31.92%
same,Plate 5 (% conversion),[7],47.18%
O=C(O)/C=C/C(=O)O.O=C(O)/C=C/C(=O)O.O=C(O)/C=C/C(=O)O.O=C1CCCN1CC#CCN1CCCC1.O=C1CCCN1CC#CCN1CCCC1 [Oxotremorine sesquifumarate salt],Plate 3 (% conversion),,14.90%
C=CCc1ccccc1OCC(O)CNC1(C)CCC(C(C)(C)NC(=O)CBr)CC1 (stereo not shown) [Bromoacetyl alprenolol menthane],Plate 1 (% conversion),,65.73%
same,Plate 1 (% inhibition),,-88.92%
N#C/C(=C\c1ccc(O)c(O)c1)C(=O)c1ccc(O)c(O)c1 [Tyrphostin AG 538],% conversion,[2],29.27%
Cl.Cn1ccc2cc(NC(=O)Nc3cccnc3)ccc21 [SB 200646 hydrochloride],Plate 1 (% inhibition),[3],-6.42%
same,Plate 1 (% conversion),[4],38.03%
O=C(O)c1cccnc1C(=O)O [Quinolinic acid],% conversion,[2],7.93%
same,inhibition at 20 µM,"LOPAC Plate 4, compound at 20 uM, read-out: % inhibition",83.6%
CN(C)C(=O)Oc1cccc([N+](C)(C)C)c1 [Neostigmine bromide],Plate 3 (% conversion),,40.63%
CCCCCCCCCCCCCCCCCCc1ccc(C(=O)/C=C/C(=O)O)cc1 [OBAA],Plate 1 (% inhibition),[3],-7.39%
same,Plate 1 (% conversion),[4],38.35%
COc1ccc(OCC2c3cc(OC)c(OC)cc3CCN2C(=O)c2cccc(Cl)c2)cc1 (stereo not shown) [CIQ],% conversion,[2],36.09%
Cc1cccc(C#Cc2ccccc2)n1.Cl,Plate 3 (% conversion),,40.82%
CC1=C(C(=O)O)N2C(=O)[C@@H](NC(=O)[C@H](N)c3ccccc3)[C@H]2SC1.O [Cephalexin hydrate],Plate 1 (% inhibition),[3],14.49%
"CC(=O)[C@H]1CC[C@H]2[C@@H]3CC[C@H]4C[C@H](O)CC[C@]4(C)[C@H]3C(=O)C[C@]12C [5alpha-Pregnan-3alpha-ol-11,20-dione]",Plate 3 (% conversion),,35.35%
CCOC(=O)c1cnc2c(cnn2CC)c1NN=C(C)C [Etazolate hydrochloride],Plate 2 (% conversion),[8],58.51%
same,inhibition at 20 µM,[11],-67.4%
CC(C)(Oc1ccc(C2CC2(Cl)Cl)cc1)C(=O)O (stereo not shown) [Ciprofibrate],Plate 1 (% inhibition),[3],-0.63%
same,Plate 1 (% conversion),[4],36.08%
NS(=O)(=O)c1nn2cc(-c3ccccc3)nc2s1 [AEG 3482],Plate 3 (% conversion),,35.73%
CNCCC(Oc1ccc(C(F)(F)F)cc1)c1ccccc1 (stereo not shown) [Fluoxetine hydrochloride],Plate 2 (% conversion),[8],43.85%
same,inhibition at 20 µM,[11],-23.6%
Ro 90-7501,Plate 3 (% conversion),[5],39.97%
CNC[C@H](O)c1cccc(O)c1 [Phenylephrine hydrochloride],Plate 3 (% conversion),[5],35.74%
CC(=O)O[C@H]1Cc2ccccc2N(C(N)=O)c2ccccc21 [BIA 2-093],% conversion,[2],30.46%
